{"source": "patent US12708671B2", "about": "“Nanometric pharmaceutical composition in the form of liposomes or nanoemulsion containing specific sequences of interference RNA” (UNIVERSIDADE FEDERAL DO RIO GRANDE DO SUL, priority 2019, dated 2026)", "key": {"U87MG glioma cells [1]": {"test_system": "U87MG glioma cells", "experiment": "U87MG cell proliferation by counting in Neubauer chamber", "type": "cell-based, human", "description": "To assess the impact of CD73 silencing on U87MG glioma cell proliferation in culture, cells were silenced using the siRNA-CD73-441 sequence and counted using a Neubauer chamber."}, "CD73 [2]": {"test_system": "CD73", "experiment": "CD73 enzymatic activity in U87MG after silencing", "type": "cell-based, human", "description": "(§1) The siRNA-CD73-441 sequence to silence human CD73 was evaluated for its efficiency."}, "U87MG glioma cells [3]": {"test_system": "U87MG glioma cells", "experiment": "U87MG migration assay", "type": "cell-based, human"}, "CD73 [4]": {"test_system": "CD73", "experiment": "CD73 protein expression in U87MG after silencing", "type": "cell-based, human", "description": "as §1"}, "U87MG glioma cells [5]": {"test_system": "U87MG glioma cells", "experiment": "U87MG cell viability with temozolomide after CD73 silencing", "type": "cell-based", "conditions": "Homo sapiens, U-87 MG, U87MG previously silenced for CD73 with siRNA-CD73-441, read-out: reduction of cell viability", "description": "The participation of CD73 in chemoresistance was also investigated (FIG. 13). U87MG glioma cells were treated with temozolomide (100 μM) alone or in combination with siRNA-CD73-441. Temozolomide reduced cell viability by an average of 20% in glioma previously silenced for CD73."}, "[6]": {"molecular_target": "T1, ecto-5′-nucleotidase/CD73 (Rattus norvegicus, UniProt P21588)", "T1 construct": "endogenous in cells; host or cells: C6 glioma cells (rat)", "T1 sequence (P21588 29-551)": "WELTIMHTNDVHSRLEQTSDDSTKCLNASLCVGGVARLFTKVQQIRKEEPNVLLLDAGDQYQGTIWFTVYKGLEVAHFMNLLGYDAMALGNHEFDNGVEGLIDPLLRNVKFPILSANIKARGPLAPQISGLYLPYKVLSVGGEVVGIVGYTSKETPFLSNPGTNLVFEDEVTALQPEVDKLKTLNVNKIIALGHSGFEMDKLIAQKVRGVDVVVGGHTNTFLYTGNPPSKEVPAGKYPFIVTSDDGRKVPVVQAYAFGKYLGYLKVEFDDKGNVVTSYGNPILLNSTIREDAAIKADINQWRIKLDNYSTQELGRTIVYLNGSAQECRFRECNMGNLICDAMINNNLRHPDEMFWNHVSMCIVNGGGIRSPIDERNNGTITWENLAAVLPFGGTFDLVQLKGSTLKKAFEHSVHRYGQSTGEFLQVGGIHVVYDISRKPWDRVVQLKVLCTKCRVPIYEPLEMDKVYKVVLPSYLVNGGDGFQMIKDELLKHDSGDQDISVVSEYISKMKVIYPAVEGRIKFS", "experiment": "ecto-5′-nucleotidase/CD73 enzymatic activity (AMP hydrolysis, malachite green) in C6 glioma", "type": "cell-based, Rattus norvergicus", "conditions": "for reduction of AMPase activity: C6 glioma cells silenced with NE/siRNA-CD73 complexes; for reduction of AMP hydrolysis: C6 glioma", "description": "(§2) After treatment with AMPCP, the medium was removed, the cells were washed with PBS buffer solution (phosphate buffered saline, solution containing NaCl and NaHPO4), trypsinized with 200 μL of 0.25% trypsin solution and counted in a newbauer chamber. Once the cells were treated, enzyme activity, cell viability and immunocytochemistry assays were performed for CD73, in order to determine the reliability of the tests with the NE/siRNA or Lipofectamine®/siRNA complexes. The enzymatic activity of C6 cells was determined in an incubation medium (2 mM MgCl2, 120 mM NaCl, 5 mM KCl, 10 mM glucose, 20 mM HEPES [pH 7.4], and 2 mM AMP [adenosine monophosphate]) at 37° C. for 10 min, where the inorganic phosphate released by the action of CD73 was measured and the protein concentration was evaluated by the methods of malachite green and Coomassie Blue, respectively. Specific activity was expressed as μmol Pi released/min/mg protein.\nThus, it was evaluated how much the selective ecto-5′nucleotidase/CD73 inhibitor, AMPCP, could affect the proliferation of C6 glioma cells. The cells were exposed to increasing concentrations of AMPCP (1, 10 and 100 μM) and after 48 h cell proliferation was determined by counting in a newbauer chamber. In parallel, the activity of the enzyme ecto-5′nucleotidase/CD73 was analyzed by measuring the hydrolysis of AMP to adenosine (ADO) using the malachite green method.\nFor this purpose, specific siRNA-CD73 sequences were developed (siRNA-CD73-961 and siRNA-CD73-980; Table 1) and their functionality/specificity was assessed by transfecting C6 cells using Lipofectamine® according to the manufacturer's instructions. After 48 h of transfection, CD73 expression and enzymatic activity were evaluated by immunocytochemistry and AMP hydrolysis, respectively.\nAfter the physical-chemical characterization and the optimization of the transfection, the effectiveness of the NE/siRNA-CD73-961 and NE/siRNA-CD73-980 complexes in silencing CD73 in C6 glioma was analyzed through immunocytochemical and AMP hydrolysis experiments."}, "C6 glioma cells": {"test_system": "C6 glioma cells", "experiment": "C6 glioma cell proliferation by counting in newbauer chamber", "type": "cell-based, rat", "conditions": "100 μM, 48 h, compared to the control", "description": "Primary astrocyte cultures were prepared from scratch. The cortex of newborn Wistar rats (1-2 days old) were removed and mechanically dissociated in a balanced saline solution free of Ca^+2 and Mg^+2 (pH 7.4), containing 137 mM NaCl, 5, 36 mM KCl, 0.27 mM Na2HPO4, 1.1 mM KH2PO4, and 6.1 mM glucose. After centrifugation at 1000 g for 5 min, the pellet was resuspended in culture medium (pH 7.6) containing […], 8.39 mM of HEPES buffer (4-(2-hydroxyethyl)-1-acid piperazine ethanesulfonic) (pH 7.6), 23.8 mM NaHCO3, 0.1% fungizone® (Amphotericin B, antifungal), 0.032% antibiotic garamycin and 10% FBS. […]\nas §2, with “Once the cells were treated, enzyme activity, cell viability and immunocytochemistry assays were performed for CD73, in order to determine the reliability of the tests with the NE/siRNA or Lipofectamine®/siRNA complexes.” left out, “protein. […]” for “protein.”"}}}
{"compound": "siRNA-CD73-441: siRNA sequence to silence human CD73, SEQ ID No: 3, Table 1 (GGGGCCACUAGCAUCUCAAAUUUGAGAUGCUAGUGGCCCCUU; listed as RNA, chemistry not given here)", "values": [{"measurement": "inhibition of U87MG cell proliferation", "setting": "U87MG glioma cells [1]; CD73 silencing", "result": "~ 40%"}, {"measurement": "decrease of CD73 enzymatic activity", "setting": "CD73 [2]", "result": "~ 90%"}, {"measurement": "glioma cell migration", "setting": "U87MG glioma cells [3]; U87MG, CD73 silencing", "result": "impaired glioma cell migration"}, {"measurement": "CD73 protein expression", "setting": "CD73 [4]", "result": "efficient in decreasing"}]}
{"compound": "Cn1nnc2c(C(N)=O)ncn2c1=O", "note": "[Temozolomide, temozolomide]", "values": [{"measurement": "cytotoxicity at 100 µM", "setting": "U87MG glioma cells [5]", "result": 20, "unit": "%"}]}
{"compound": "siRNA-CD73-961: interference RNA sequence for CD73 (gene ID: 58813, Rattus norvergicus), SEQ ID No: 1, Table 1 (GCCAUCAAAGCAGACAUUAACUAAUGUCUGCUUUGAUGGCUG; listed as RNA, chemistry not given here)", "values": [{"measurement": "reduction of AMPase activity", "setting": "[6]", "result": 70, "unit": "%"}]}
{"compound": "Nc1ncnc2c1ncn2[C@@H]1O[C@H](CO)[C@@H](O)[C@H]1O", "note": "[adenosine]", "values": [{"measurement": "proliferation of CD73-silenced U87MG cells", "setting": "U87MG glioma cells [1]; ADO treatment of cells silenced with siRNA-CD73-441", "result": "restored proliferation"}, {"measurement": "migration of U87MG glioma cells", "setting": "U87MG glioma cells [3]; 24 hours of analysis", "result": "induced a sustained migration"}, {"measurement": "migratory potential of CD73-silenced glioblastoma cells", "setting": "U87MG glioma cells [3]; adenosine treatment of cells silenced with siRNA-CD73-441", "result": "promoted recovery of the migratory potential"}]}
{"compound": "siRNA-CD73-980: interference RNA sequence for CD73 (gene ID: 58813, Rattus norvergicus), SEQ ID No: 2, Table 1 (ACCAGUGGAGGAUAAAAUUAGAAUUUUAUCCUCCACUGGUUA; listed as RNA, chemistry not given here)", "values": [{"measurement": "reduction of AMPase activity", "setting": "[6]", "result": 63, "unit": "%"}]}
{"compound": "Nc1ncnc2c1ncn2[C@@H]1O[C@H](COP(=O)(O)CP(=O)(O)O)[C@@H](O)[C@H]1O", "note": "[AMPCP, adenosine 5′-(α, βmethylene) -diphosphate]", "values": [{"measurement": "decrease in cell proliferation", "setting": "C6 glioma cells", "result": 30, "unit": "%"}, {"measurement": "reduction of AMP hydrolysis", "setting": "[6]; 10 μM", "result": 40, "unit": "%"}, {"measurement": "reduction of AMP hydrolysis", "setting": "[6]; 100 μM", "result": 50, "unit": "%"}]}
